In ChEMBL document CHEMBL1201862, “PubChem BioAssay data set” (2004):
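Five compound concentrations were applied to cells in 96-well plates for 48 hours; endpoints were derived by simple linear interpolation of the resulting dose-response curve. GI50 marks 50% less growth.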 Active and inactive are the calls of the source. Rule as the data show it: active = GI50 up to about 1.1 µM and inactive = higher.

Tests used:
Assay in all cases: inhibition of tumour cell growth, NCI panel, 48 h
NCI/ADR-RES = test system: NCI/ADR-RES
KM12 = test system: KM12
TK-10 = test system: TK-10
HOP-92 = test system: HOP-92
OVCAR-3 = test system: OVCAR-3
HCT-116 = test system: HCT-116
UO-31 = test system: UO-31
OVCAR-4 = test system: OVCAR-4
MOLT-4 = test system: MOLT-4
MDA-MB-435 = test system: MDA-MB-435
MDA-N = test system: MDA-N
EKVX = test system: EKVX
CCRF-CEM = test system: CCRF-CEM
CAKI-1 = test system: CAKI-1
T47D = test system: T47D
SNB-19 = test system: SNB-19
OVCAR-8 = test system: OVCAR-8
HOP-62 = test system: HOP-62
PC-3 = test system: PC-3
SF-295 = test system: SF-295

Compound | GI50 (NCI/ADR-RES) | GI50 (KM12) | GI50 (TK-10) | GI50 (HOP-92) | GI50 (OVCAR-3) | GI50 (HCT-116) | GI50 (UO-31) | GI50 (OVCAR-4) | GI50 (MOLT-4) | GI50 (MDA-MB-435) | GI50 (MDA-N) | GI50 (EKVX) | GI50 (CCRF-CEM) | GI50 (CAKI-1) | GI50 (T47D) | GI50 (SNB-19) | GI50 (OVCAR-8) | GI50 (HOP-62) | GI50 (PC-3) | GI50 (SF-295)
CC(C)Cn1cnc2c(Sc3c([N+](=O)[O-])ncn3C)nc(N)nc21 | > 100 µM (inactive) | > 100 µM (inactive) | > 41.1 µM (inactive) | 14.9 µM (inactive) | > 35 µM (inactive) | > 60.1 µM (inactive) | > 38 µM (inactive) | 23.6 µM (inactive) | > 42.2 µM (inactive) | 37.5 µM (inactive) | 36.1 µM (inactive) | > 50.8 µM (inactive) | 38.6 µM (inactive) | 22.8 µM (inactive) | 30.4 µM (inactive) | > 100 µM (inactive) | > 61.4 µM (inactive) | > 80.4 µM (inactive) | 26.1 µM (inactive) | > 100 µM (inactive)
O=C1C(c2c(O)[nH]c3ccccc23)=Nc2ccc(Br)cc21 | 37.4 µM (inactive) | 17.1 µM (inactive) | 23 µM (inactive) | 17.6 µM (inactive) | 99.5 µM (inactive) | 24.3 µM (inactive) | 24.6 µM (inactive) | 14.9 µM (inactive) | 18.9 µM (inactive) | 61.8 µM (inactive) | 99.1 µM (inactive) | 15.1 µM (inactive) | 21.2 µM (inactive) | 56.2 µM (inactive) | 21.8 µM (inactive) | 22 µM (inactive) | 15.1 µM (inactive) | 21.3 µM (inactive) | 14.8 µM (inactive) | 22.4 µM (inactive)
O=C1CSC(c2cccc(Oc3ccccc3)c2)N1c1ccc(Cl)cc1 (centres undefined) | 24.4 µM (inactive) | 21.3 µM (inactive) | 22.4 µM (inactive) | 13.4 µM (inactive) | 39.4 µM (inactive) | 13.6 µM (inactive) | 34.5 µM (inactive) | 26.2 µM (inactive) | 13.6 µM (inactive) | 23.2 µM (inactive) | 19.4 µM (inactive) | 20.7 µM (inactive) | 51.4 µM (inactive) | 17.9 µM (inactive) | 10.2 µM (inactive) | 54.8 µM (inactive) | 34.7 µM (inactive) | 57 µM (inactive) | 23 µM (inactive) | 31 µM (inactive)
CNC(=O)Nn1c(SC)nc2ccccc21 | > 100 µM (inactive) | > 100 µM (inactive) | > 100 µM (inactive) | > 100 µM (inactive) |  | > 100 µM (inactive) | > 100 µM (inactive) | > 100 µM (inactive) | > 100 µM (inactive) | > 100 µM (inactive) | > 100 µM (inactive) | > 100 µM (inactive) | > 100 µM (inactive) | > 100 µM (inactive) | > 100 µM (inactive) | > 100 µM (inactive) | > 100 µM (inactive) | > 100 µM (inactive) | > 100 µM (inactive) | > 100 µM (inactive)
OCCOc1ccccc2cccc1-2 | > 100 µM (inactive) | > 100 µM (inactive) | > 100 µM (inactive) | > 100 µM (inactive) | > 100 µM (inactive) | > 100 µM (inactive) | > 100 µM (inactive) | 34 µM (inactive) |  | > 100 µM (inactive) | > 100 µM (inactive) | > 100 µM (inactive) | > 100 µM (inactive) | > 100 µM (inactive) | 47.1 µM (inactive) | > 100 µM (inactive) | > 100 µM (inactive) | > 100 µM (inactive) | > 100 µM (inactive) | > 100 µM (inactive)
O=C(O)CCSC1=NCCN1 | > 100 µM (inactive) | > 100 µM (inactive) | > 100 µM (inactive) | > 100 µM (inactive) | > 100 µM (inactive) | > 100 µM (inactive) | > 100 µM (inactive) | > 100 µM (inactive) |  | > 100 µM (inactive) | > 100 µM (inactive) | > 100 µM (inactive) | 98.6 µM (inactive) | > 100 µM (inactive) | > 100 µM (inactive) | > 100 µM (inactive) | > 100 µM (inactive) | > 100 µM (inactive) | > 100 µM (inactive) | > 100 µM (inactive)
OC(C1CCC=NN1C(O)(C(F)(F)F)C(F)(F)F)(C(F)(F)F)C(F)(F)F (centres undefined) | > 10 µM (inactive) | > 10 µM (inactive) | > 10 µM (inactive) | > 10 µM (inactive) | > 10 µM (inactive) | > 10 µM (inactive) |  | > 10 µM (inactive) | > 10 µM (inactive) | > 10 µM (inactive) | > 10 µM (inactive) | > 10 µM (inactive) | > 10 µM (inactive) | > 10 µM (inactive) | > 10 µM (inactive) | > 10 µM (inactive) | > 10 µM (inactive) | > 10 µM (inactive) | > 10 µM (inactive) | > 10 µM (inactive)
C=CCC1(O)CC(n2cc(C)c(=O)[nH]c2=O)OC1CO[Si](C)(C)C(C)(C)C (centres undefined) | 43.1 µM (inactive) | 45.3 µM (inactive) |  | 35.5 µM (inactive) | 39 µM (inactive) | 42 µM (inactive) | 42.4 µM (inactive) | 47 µM (inactive) | 57.3 µM (inactive) | 41.5 µM (inactive) | 51.6 µM (inactive) | 36.7 µM (inactive) | 43.8 µM (inactive) | 54.6 µM (inactive) | 55.2 µM (inactive) | > 100 µM (inactive) | 42.9 µM (inactive) | > 100 µM (inactive) | 36.5 µM (inactive) | 42.9 µM (inactive)
Cc1ccc(N2C(=O)C(=O)N(/N=C3\C(=O)Nc4ccccc43)C2=S)cc1 | 28.8 µM (inactive) | 65.8 µM (inactive) | > 100 µM (inactive) | > 100 µM (inactive) | 64.4 µM (inactive) | 65.8 µM (inactive) | > 100 µM (inactive) |  | 28.8 µM (inactive) | 36.6 µM (inactive) | 59.7 µM (inactive) | > 100 µM (inactive) | 7.96 µM (inactive) | 92.5 µM (inactive) | 38.2 µM (inactive) | > 100 µM (inactive) | 59.3 µM (inactive) | > 100 µM (inactive) | 39.4 µM (inactive) | 54.1 µM (inactive)
CC(C)OP(=O)(OC(C)C)C(Nc1cccc(C(F)(F)F)c1)c1ccccc1 (centres undefined) | 32.7 µM (inactive) | 40.6 µM (inactive) | > 100 µM (inactive) | 17.1 µM (inactive) | 35.6 µM (inactive) | 17.1 µM (inactive) | 17.9 µM (inactive) | 54.8 µM (inactive) | 13.7 µM (inactive) | 41.6 µM (inactive) | 41 µM (inactive) | 33.3 µM (inactive) | 31 µM (inactive) | 18.7 µM (inactive) | 35.7 µM (inactive) | 71.6 µM (inactive) | 59.4 µM (inactive) | 69.7 µM (inactive) | 37.2 µM (inactive) | 47.9 µM (inactive)
CCOC(=O)Nc1cc2c(c(N)n1)N=C(c1ccc(Cl)cc1Cl)CN2 | < 0.0154 µM (active) | < 0.0174 µM (active) | 3.78 µM (inactive) | 17.3 µM (inactive) | 0.0109 µM (active) | < 0.01 µM (active) | 0.052 µM (active) | 14.3 µM (inactive) | < 0.0228 µM (active) | < 0.01 µM (active) | < 0.01 µM (active) | 1.63 µM (inactive) | < 0.0155 µM (active) | 0.0383 µM (active) | 15.6 µM (inactive) | 0.019 µM (active) | 0.0276 µM (active) | < 0.0189 µM (active) | < 0.0129 µM (active) | 0.0112 µM (active)
